Assay results reported in BigSolDB 2.1.

COc1cc2c(cc1OC)C(=O)C(CC1CCN(Cc3ccccc3)CC1)C2.Cl (stereo not drawn)
solubility (mole fraction)
Conditions	in DMF	in ethanol	in methanol	in n-propanol
278.15 K	0.00119	0.000291	0.00167	0.000112
283.15 K	0.00135	0.000379	0.00222	0.000153
288.15 K	0.00152	0.000484	0.00287	0.000214
293.15 K	0.00173	0.000609	0.00375	0.000301
298.15 K	0.00196	0.000768	0.00483	0.000404
303.15 K	0.00222	0.000951	0.00636	0.000543
308.15 K	0.00251	0.00118	0.00803	0.000743
313.15 K	0.00286	0.00145	0.0105	0.00102
318.15 K	0.00325	0.00177	0.0133	0.00133
323.15 K	0.00368	0.00215	0.017	0.0018
328.15 K	0.00418	0.00259	0.0216	0.00241
333.15 K	0.00476	0.00308	0.0277	0.00321
